{
  "source": "paper PMC6231237",
  "about": "(Journal of the American Chemical Society, 2018)",
  "key": {"[1]": {"test_system": "ovarian surface epithelial cells (OSE)", "assay": "Methylene blue cell viability assay, OSE", "assay_type": "cell-based", "settings": "72 h"}, "[2]": {"test_system": "A375 melanoma cells", "assay": "Cell viability assay, A375", "assay_type": "cell-based"}, "[3]": {"test_system": "A2780 ovarian cancer cells", "assay": "Live-cell confocal microscopy of cell entry", "assay_type": "cell-based", "settings": "5 μM FITC-labeled peptide, 2 h"}, "[4]": {"test_system": "TNFα-induced NF-κB activation in HEK293(Luc) cells", "assay": "NF-κB luciferase assay, TNFα-induced", "assay_type": "cell-based"}, "[5]": {"molecular_target": "panel of control proteins", "assay": "Fluorescence anisotropy", "settings": "fluorescently labeled peptide, FA assay"}, "[6]": {"molecular_target": "NEMO-IKKβ interaction (Homo sapiens, UniProt Q9Y6K9)", "sequence (Q9Y6K9 1-196)": "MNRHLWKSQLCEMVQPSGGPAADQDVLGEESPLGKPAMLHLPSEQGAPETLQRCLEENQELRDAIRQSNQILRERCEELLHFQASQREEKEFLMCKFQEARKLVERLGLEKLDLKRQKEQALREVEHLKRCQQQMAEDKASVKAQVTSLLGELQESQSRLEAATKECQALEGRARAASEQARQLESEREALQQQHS", "assay": "HTRF assay of inhibition of the NEMO-IKKβ interaction", "assay_type": "binding", "settings": "insertion of Ala N-terminal to the internal Dap, vs peptide 6"}, "[7]": {"test_system": "HeLa cells", "assay": "Flow cytometry analysis of cellular uptake of FITC-labeled peptides", "assay_type": "cell-based", "settings": "relative to CPP1"}, "[8]": {"test_system": "HT29 colon cancer cells", "assay": "Immunoblot analysis of IKKβ and IκBα levels", "assay_type": "cell-based"}, "[9]": {"test_system": "basal NF-κB activity in HEK293(Luc) cells", "assay": "NF-κB luciferase assay, basal", "assay_type": "cell-based", "settings": "absence of TNFα stimulation"}, "[10]": {"settings": "0–25 μM, HT29 cells, TNFα, Western blot"}},
  "note": "*1 amine or outer side, *2 acyl side, *3 side chain or, on linkers, in order; H or OH if unused. Where a SMILES comes first, the peptide text is derived from it. Bridges are numbered along the chain shown (N, C = ends). [ ]: non-standard residue; d: D form. Trimesoyl = O=C(c1cc(C(=O)[*:2])cc(C(=O)[*:3])c1)[*:1]; 2Nal = N[C@@H](Cc1ccc2ccccc2c1)C(=O)O; Dap = NC[C@H](N)C(=O)O; βAla = NCCC(=O)O",
  "data": [
    {"compound": "CC[C@H](C)[C@@H]1NC(=O)[C@H](Cc2c[nH]c3ccccc23)NC(=O)CNC(=O)c2cc3cc(c2)C(=O)NC[C@@H](C(=O)NCCC(=O)NCCC(=O)N[C@@H](CCCCN)C(N)=O)NC(=O)[C@H](CCCNC(=N)N)NC(=O)[C@@H](CCCNC(=N)N)NC(=O)[C@H](CCCNC(=N)N)NC(=O)[C@H](Cc2ccc4ccccc4c2)NC(=O)[C@H](Cc2ccccc2)NC(=O)[C@H](CNC3=O)NC(=O)[C@H](C)NC(=O)[C@H](Cc2ccc(O)cc2)NC1=O", "note": "[peptide 7, Tm(GWIYA)Δ(FΦRrRΔ)-BBK] (GWIYA[Dap]F[2Nal]R[dR]R[Dap][βAla][βAla]K-NH2; linker N-6-12 via Trimesoyl; C-terminus assumed)", "values": [
      {"measurement": "effect on viability", "setting": "[1]", "value": "no significant effect"},
      {"measurement": "effect on viability", "setting": "[2]", "value": "reduced the viability"},
      {"measurement": "cell entry (fluorescence)", "setting": "[3]", "value": "intense green fluorescence inside all cells"},
      {"measurement": "IC50", "setting": "[4]", "value": 10, "unit": "µM"},
      {"measurement": "Kd", "setting": "[5]", "value": "> 10", "unit": "µM"},
      {"measurement": "increase of binding affinity", "setting": "[6]", "value": 5.9, "unit": "fold"},
      {"measurement": "cell permeability", "setting": "[7]", "value": 163, "unit": "%"},
      {"measurement": "TNFα-induced phosphorylation of IKKβ", "setting": "[8]; [10]", "value": "dose-dependently inhibited"},
      {"measurement": "total intracellular IKKβ level", "setting": "[8]; [10]", "value": "unchanged"},
      {"measurement": "phospho-IKKβ or IκBα level", "setting": "[8]; HT29 cells not stimulated with TNFα", "value": "no effect"},
      {"measurement": "intracellular level of IκBα", "setting": "[8]; HT29 cells, TNFα, Western blot", "value": "increased"},
      {"measurement": "effect on basal NF-κB activity", "setting": "[9]", "value": "did not inhibit"},
      {"measurement": "increase in the basal NF-κB activity", "setting": "[9]", "value": "~ 1.5 fold"}
    ]},
    {"compound": "RQIKIWFQNRRMKWKKGGTALDWSWLQTE [peptide 1, reference compound]", "values": [
      {"measurement": "IC50", "setting": "[4]", "value": "~41", "unit": "µM"}
    ]}
  ]
}
